The source made the active and inactive calls. No cut-off for these calls is given here.

Here are results for 23 compounds from ChEMBL document CHEMBL5523668, “Elongation of N6-benzyladenosine scaffold via Pd-catalyzed C-C bond formation leads to derivatives with antiflaviviral activity” (Bioorg Med Chem, 2024).

Data set [1] has as its system West Nile virus. Put plainly: Antiviral activity against WNV infected in African green monkey Vero cells assessed as viral growth inhibition pre-infected with virus for 5 hrs followed by compound addition and measured 24 hrs post infection. To be noted: time 19.0 hrs. Type of data set: functional, organism-based.
Data set [2] concerns West Nile virus. The data set is described as follows: Antiviral activity against WNV infected in African green monkey Vero cells assessed as reduction in cytopathic effect by plaque reduction assay. Type of data set: functional, organism-based. Background: Protection from cytopathic effect is a common read-out in antiviral testing.
In data set [3] the test system is Tick-borne encephalitis virus. Put plainly: Antiviral activity against TBEV infected in porcine PEK cells assessed as reduction in cytopathic effect by plaque reduction assay. Type of data set: functional, organism-based.
For data set [4], the system named is West Nile virus. Put plainly: Antiviral activity against WNV infected in African green monkey Vero cells assessed as viral growth inhibition measured after 24 hrs. Type of data set: functional, organism-based.
A short description of data set [5]: Cytotoxicity against porcine PEK cells assessed as reduction in cell viability after 7 days by resazurin staining based analysis. Type of data set: toxicity, Sus scrofa. The conditions noted are these: pig, time 7 day. Background: The colour change of resazurin is a common sign of viable cells or microbes.
The subject of data set [6] is West Nile virus. Put plainly: Antiviral activity against WNV infected in African green monkey Vero cells assessed as viral growth inhibition pre-infected with virus for 2 hrs followed by compound addition and measured after compound washout at 5 hrs post infection. To be noted: time 3.0 hrs. Type of data set: functional, organism-based.
The subject of data set [7] is West Nile virus. The data set is described as follows: Antiviral activity against WNV infected in African green monkey Vero cells assessed as viral growth inhibition pre-infected with virus for 2 hrs followed by compound addition and measured 24 hrs post infection by time of addition assay. Type of data set: functional, organism-based. The conditions noted are these: time 22.0 hrs.

The nature of data set [8]: Cytotoxicity against African green monkey Vero cells assessed as reduction in cell viability after 7 days by resazurin staining based analysis. Type of data set: toxicity. To be noted: chlorocebus sabaeus, time 7 day.
Another data set relates to Yellow fever virus. Put plainly: Antiviral activity against YFV infected in African green monkey Vero cells assessed as reduction in cytopathic effect by plaque reduction assay. Type of data set: functional, organism-based.
Data set [9] concerns West Nile virus. The data set is described as follows: Antiviral activity against WNV infected in African green monkey Vero cells assessed as viral growth inhibition pre-treated with compound for 2 hrs followed by viral infection and measured 24 hrs post infection. Type of data set: functional, organism-based. The conditions noted are these: time 26.0 hrs.
The nature of data set [10]: Cytotoxicity against porcine PEK cells assessed as reduction in cell viability after 24 hrs by resazurin staining based analysis. Type of data set: toxicity, Sus scrofa. The conditions noted are these: pig.
A short description of data set [11]: Cytotoxicity against African green monkey Vero cells assessed as reduction in cell viability after 24 hrs by resazurin staining based analysis. The conditions noted are these: chlorocebus sabaeus. Type of data set: toxicity.
The subject of data set [12] is Tick-borne encephalitis virus. Put plainly: Antiviral activity against TBEV infected in porcine PEK cells pre-infected for 1 hr followed by cell addition for 1 hrs and measured after 6 days. Type of data set: functional, organism-based.
Data set [13] has as its system West Nile virus. Put plainly: Antiviral activity against WNV infected in African green monkey Vero cells. Type of data set: functional, organism-based.
In data set [14] the test system is Tick-borne encephalitis virus. Put plainly: Antiviral activity against TBEV infected in porcine PS cells assessed as inhibition of virus induced cytopathic effect pre-infected with virus followed by compound addition and measured after 3 to 4 days by microscope based analysis. Type of data set: functional, organism-based.
Data set [15] concerns Tick-borne encephalitis virus. The data set is described as follows: Antiviral activity against TBEV infected in human A549 cells assessed as reduction in cytopathic effect pretreated with cells for 1 hr followed by viral infection and measured after 3 days. Type of data set: functional, organism-based.
The subject of a further data set is Enterovirus A71. The data set is described as follows: Antiviral activity against human EV71 BrCr infected human RD cells assessed as reduction in cytopathic effect pretreated with cells followed by viral infection and measured after 3 to 4 days post infection. Type of data set: functional, organism-based. To be noted: Enterovirus A.
The nature of data set [16]: Cytotoxicity against human RD cells. Type of data set: toxicity, cell-based.
The test system of data set [17] is Tick-borne encephalitis virus. Put plainly: Antiviral activity against TBEV infected in porcine PS cells pretreated with cells followed by viral infection and measured after 3 days post infection by microscope based analysis. Type of data set: functional, organism-based.
For data set [18], the system named is West Nile virus. The data set is described as follows: Antiviral activity against WNV NY99 infected in African green monkey Vero cells pretreated with cells for 16 hrs followed by viral infection for 1 hr and measured after 48 hrs by plaque assay. Type of data set: functional, organism-based.
Data set [19] can be described thus: Selectivity index, ratio of CC50 for human A549 cells to EC50 for TBEV infected in human A549 cells. To be noted: read-out: Ratio CC50/EC50. Type of data set: toxicity, cell-based.
For data set [20], the system named is Tick-borne encephalitis virus. Put plainly: Antiviral activity against TBEV infected in human A549 cells assessed as inhibition of virus induced cytopathic effect. Type of data set: functional, organism-based.
Data set [21] relates to Tick-borne encephalitis virus. Put plainly: Antiviral activity against TBEV infected in porcine PS cells assessed as r inhibition of virus induced cytopathic effect pretreated with cells for 24 hrs followed by viral infection for 24 hrs and measured after 72 hrs post infection. Type of data set: functional, organism-based.

One may read the EC50 as the concentration that produces a half-maximal response. For orientation: CC50 means the concentration that lowers cell viability or growth by half. As for `OC[C@H]1O[C@@H](n2cnc3c(NCc4ccc(C#CC5=CCCCC5)cc4)ncnc32)[C@H](O)[C@@H]1O`, the outcome with West Nile virus [1] and with West Nile virus [7] was Active. Further, the EC50 was 5 µM in the data set on West Nile virus [2], 10 µM in data set [3] and 24 µM in the data set on Yellow fever virus. In addition, the result with West Nile virus [4], in the data set with West Nile virus [6] and with West Nile virus [9] was inactive. Besides, the CC50 at 168 h in [5] is 36.6 µM; in data set [8], over 50 µM.

As for `OC[C@H]1O[C@@H](n2cnc3c(NCc4ccc(C#Cc5cc(C(F)(F)F)cc(C(F)(F)F)c5)cc4)ncnc32)[C@H](O)[C@@H]1O`, the EC50 worked out at 1.5 µM in the data set with West Nile virus [2], 2.2 µM in data set [3] and 5.6 µM in the data set with Yellow fever virus. Moreover, the half-maximal cytotoxic concentration (CC50) at 168 h in [5] came out at 8.1 µM; in data set [8], 15.7 µM.

For `OC[C@H]1O[C@@H](n2cnc3c(NCc4ccc(-c5cccc(C(F)(F)F)c5)cc4)ncnc32)[C@H](O)[C@@H]1O`, the result with West Nile virus [1] and in the data set with West Nile virus [7] was Active. Moreover, the EC50 in the data set with West Nile virus [2] came out at 6.8 µM; in data set [3], 6 µM; with Yellow fever virus, 31 µM. Moreover, the result with West Nile virus [4], in the data set with West Nile virus [6] and with West Nile virus [9] was inactive. For the same compound, the CC50 at 168 h is 36.7 µM in data set [5] and over 50 µM in data set [8]. In addition, the CC50 at 24 h in [10] and in [11] was over 50 µM in each case.

`OC[C@H]1O[C@@H](n2cnc3c(NCc4ccc(C#CC5CC5)cc4)ncnc32)[C@H](O)[C@@H]1O`: the concentration giving a half-maximal response (EC50) was 32 µM in the data set on West Nile virus [2], over 50 µM in [3] and over 50 µM in the data set on Yellow fever virus. The CC50 at 168 h in data set [5] and in [8] was over 50 µM each time.

For `Nc1onc(C(=O)OCC23CC4CC(CC(C4)C2)C3)c1CCc1ccccc1`, the CC50 at 168 h in data set [5] and in [8] was over 100 µM in each case. Besides, the EC50 in [12] came out at 1.8 µM; with West Nile virus [13] it was 1.8 µM; with Yellow fever virus, 2.2 µM.

For the compound `C[C@@]1(O)[C@H](O)[C@@H](CO)O[C@H]1n1ccc2c(N)ncnc21` [BETA-2'-C-METHYL-7-DEAZA-ADENOSINE], the EC50 in [14] was 5.1 µM.

Consider `C#C[C@@]1(O)[C@H](O)[C@@H](CO)O[C@H]1n1ccc2c(N)ncnc21`, for which the EC50 in [15] amounted to 0.2 µM.

Consider `C[C@@]1(O)[C@H](O)[C@@H](CO)O[C@H]1n1cnc2c(N)ncnc21`, for which the EC50 in data set [14] worked out at 7.1 µM.

For the compound `OC[C@H]1O[C@@H](n2cnc3c(NCc4c(F)cccc4F)ncnc32)[C@H](O)[C@@H]1O`, the EC50 in the data set on Enterovirus A71 came out at 0.21 µM. The compound further displayed a cytotoxic concentration (CC50) in data set [16] of over 245 µM.

For the compound `OC[C@H]1O[C@@H](n2cnc3c(NCc4cc(C(F)(F)F)cc(C(F)(F)F)c4)ncnc32)[C@H](O)[C@@H]1O`, the EC50 in the data set on West Nile virus [2] is 16 µM; in data set [3] it was over 50 µM; in the data set on Yellow fever virus, over 50 µM. For the same compound, the cytotoxic concentration (CC50) at 168 h in [5] and in [8] was over 50 µM throughout.

Take `OC[C@H]1O[C@@H](n2cnc3c(NCc4ccc(-c5ccccc5)cc4)ncnc32)[C@H](O)[C@@H]1O`: the results for the EC50 (with West Nile virus [2]; in data set [3]; with Yellow fever virus) were 13 µM, over 50 µM and over 50 µM, respectively. Moreover, the CC50 at 168 h in data set [5] and in [8] was over 50 µM each time. In addition, the CC50 at 24 h in data set [10] and in data set [11] was over 50 µM each time.

`[N-]=[N+]=N[C@]1(CO)O[C@@H](n2ccc(N)nc2=O)[C@H](O)[C@@H]1O` [4'-AZIDOCYTIDINE]: the half-maximal effective concentration (EC50) in data set [17] stood at 2.7 µM.

With `NC(=O)c1nc(F)cnc1O` [FAVIPIRAVIR], the CC50 at 168 h in data set [8] was over 1000 µM. Further, the 50% effective concentration (EC50) with West Nile virus [18] was found to be 94 µM.

As to `CCC(CC)COC(=O)[C@H](C)N[P@](=O)(OC[C@H]1O[C@@](C#N)(c2ccc3c(N)ncnn23)[C@H](O)[C@@H]1O)Oc1ccccc1` [REMDESIVIR], in data set [19], the selectivity ratio is 4.8. For the same compound, the concentration giving a half-maximal response (EC50) stood at 2.1 µM in data set [20] (Tick-borne encephalitis virus, A549) and 3.5 µM in data set [20] (a549).

For `OC[C@H]1O[C@@H](n2cnc3c(NCc4ccc(C(F)(F)F)cc4)ncnc32)[C@H](O)[C@@H]1O`, the EC50 in the data set with West Nile virus [2] was 7 µM; in [3], over 50 µM; in the data set on Yellow fever virus it was over 50 µM. The CC50 at 168 h in data set [5] and in data set [8] was over 50 µM in each case.

`OC[C@H]1O[C@@H](n2cnc3c(NCc4ccc(C#Cc5ccccc5)cc4)ncnc32)[C@H](O)[C@@H]1O`: the EC50 came to 9.7 µM with West Nile virus [2], 36.6 µM in data set [3] and 33 µM in the data set with Yellow fever virus. Also, the CC50 at 168 h in data set [5] and in data set [8] was over 50 µM in each case.

As to `OC[C@H]1O[C@@H](n2cnc3c(NCc4ccc(C#CC5CCCC5)cc4)ncnc32)[C@H](O)[C@@H]1O`, the EC50 was determined as 18 µM in the data set with West Nile virus [2], 8 µM in data set [3] and 17.8 µM with Yellow fever virus. For the same compound, the CC50 at 168 h in data set [5] was 37 µM; in [8], 38 µM.

In the case of `C[C@@]1(O)[C@H](O)[C@@H](CO)O[C@H]1n1ccc(N)nc1=O`, the EC50 in [14] stood at 14.2 µM.

Consider `OC[C@H]1O[C@@H](n2cnc3c(NCc4ccc(-c5ccccc5C(F)(F)F)cc4)ncnc32)[C@H](O)[C@@H]1O`, for which the EC50 stood at 24 µM with West Nile virus [2], 17 µM in data set [3] and 46 µM in the data set on Yellow fever virus. In addition, the CC50 at 168 h in data set [5] was over 50 µM; in data set [8], over 41 µM. Further, the CC50 at 24 h in data set [10] and in [11] was over 50 µM throughout.

As for `OC[C@H]1O[C@@H](n2cnc3c(NCc4ccccc4C(F)(F)F)ncnc32)[C@H](O)[C@@H]1O`, the EC50 with West Nile virus [2] is 7.7 µM; in data set [3], over 50 µM; in the data set on Yellow fever virus it was over 50 µM. Besides, the CC50 at 168 h in data set [5] and in data set [8] was over 50 µM throughout.

As to `Nc1ncnc2c1ncn2[C@@H]1O[C@H](CO)[C@@H](F)[C@H]1O`, the half-maximal effective concentration (EC50) in [21] stood at 1.6 µM.

Take `OC[C@H]1O[C@@H](n2cnc3c(NCc4cccc(C(F)(F)F)c4)ncnc32)[C@H](O)[C@@H]1O`: the figures for the EC50 (in the data set with West Nile virus [2]; in [3]; with Yellow fever virus) were 8 µM, over 50 µM and over 50 µM, respectively. Besides, the CC50 at 168 h in data set [5] and in [8] was over 50 µM each time. In [16], this compound displayed a CC50 of over 235 µM.

Consider `OC[C@H]1O[C@@H](n2cnc3c(NCc4ccc(-c5ccc(C(F)(F)F)cc5)cc4)ncnc32)[C@H](O)[C@@H]1O`, for which the figures for the EC50 (in the data set on West Nile virus [2]; in data set [3]; in the data set with Yellow fever virus) were 8.3 µM, 4.7 µM and 27 µM, respectively. Also, the CC50 at 168 h in data set [5] worked out at 26 µM; in data set [8], 28.5 µM.
